In patent US9537110B2, “Chalcogen-containing organic compound and use thereof” (JNC CORPORATION, priority 2012, dated 2017):
Converted amounts (≈) assume the structure as drawn. Like-named read-outs stand apart in the source and are kept apart here.

Key:
[1] = Evaluation of chemical stability by UV-Vis spectrum; type: physicochemical
Method: Then, 0.6951 mg of the compound synthesized in Example 3 was weighed, and dissolved into degassed benzonitrile (25 mL) using a measuring flask in a glove box (solution concentration: 4.92×10^−5 M). A prepared solution thereof was put into a UV cell with a cover, and a UV-Vis spectrum (device used: Jasco V-570 Spectrometer, made by JASCO Corporation) was immediately measured. Subsequently, opening and closing of the cover were repeated several times under atmospheric air to bring the solution into contact with oxygen in air.
Moreover, a film having a thickness of 100 nanometers formed by performing vacuum deposition of the compound synthesized in Example 3 was allowed to stand for one week in atmospheric air. The results obtained by measuring UV-Vis spectra (device used: Jasco V-570 Spectrometer, made by JASCO Corporation) over time during the period are shown in FIG. 6.

[2] = Solubility evaluation in organic solvents; type: physicochemical; conditions: room temperature; for solubility: organic solvent or mixture
Method: Solubility of the compound was evaluated. As a result, under room temperature, the compound was dissolved into chloroform at 381 g/L (20.5 wt. %), and into toluene at 137 g/L (13.6 wt. %). The compound is clearly found to show high solubility in any of solvent to allow use in an application process.
Solubility of the compound was evaluated. As a result, under room temperature, the compound was dissolved into chloroform at 43 g/L (2.8 wt. %), and into toluene at 23 g/L (2.6 wt. %). The compound is clearly found to show high solubility in any of solvent to allow use in an application process.

[3] = chloroform, read-out: Solubility in chloroform
[4] = toluene, read-out: Solubility in toluene

SMILES: CCCCCCCCCCc1ccc2cc3c(cc2c1)oc1cc2cc(CCCCCCCCCC)ccc2cc13 [Example 3, 3,9-didecyldinaphtho[2,3-b:2′,3′-d]furan]
- Change of UV-Vis spectrum of solution ([1]; benzonitrile solution 4.92×10^−5 M, contact with oxygen in air, 3, 24 and 72 hours): no change of the spectrum was observed
- Chemical stability (conclusion) ([1]; solution and film in air): chemically stable
- Change of UV-Vis spectrum of film ([1]; vacuum-deposited film 100 nanometers, one week in atmospheric air): no change of the spectrum was observed
- melting point: 216 to 217 °C

SMILES: c1ccc2cc3c(cc2c1)sc1cc2ccccc2cc13 [Comparative Example 1, dinaphtho[2,3-b:2′,3′-d]thiophene]
- melting point: 282 to 283 °C

SMILES: CCCCCCCCc1ccc2cc3c(cc2c1)sc1cc2cc(CCCCCCCC)ccc2cc13 [Example 8, 3,9-dioctyldinaphtho[2,3-b:2′,3′-d]thiophene]
- melting point: 193.7 to 194.8 °C

SMILES: CCCCCCCCCCc1ccc2cc3c(cc2c1)sc1cc2cc(CCCCCCCCCC)ccc2cc13 [Example 6, 3,9-didecyldinaphtho[2,3-b:2′,3′-d]thiophene]
- melting point: 182 to 183 °C

SMILES: CCCCCCCCc1cc2oc3cc(CCCCCCCC)c4ccccc4c3c2c2ccccc12 [Example 18, 5,9-dioctyldinaphtho[2,1-b:1′,2′-d]furan]
- solubility [2, 3]: 381 mg/mL (≈ 773 mM)
- solubility [2, 4]: 137 mg/mL (≈ 278 mM)
- Solubility in chloroform ([2]; chloroform): 20.5 wt. %
- Solubility in toluene ([2]; toluene): 13.6 wt. %

SMILES: CCCCCCCCCCc1ccc2cc3sc4cc5ccc(CCCCCCCCCC)cc5cc4c3cc2c1 [Example 2, 2,10-didecyldinaphtho[2,3-b:2′,3′-d]thiophene]
- melting point: 122 to 123 °C

SMILES: CCCCCCCCCCc1ccc2cc3oc4cc5ccc(CCCCCCCCCC)cc5cc4c3cc2c1 [Example 1, 2,10-didecyldinaphtho[2,3-b:2′,3′-d]furan]
- melting point: 175 to 176 °C

SMILES: c1ccc(-c2cc3oc4cc(-c5ccccc5)c5ccccc5c4c3c3ccccc23)cc1 [Example 20, 5,9-diphenyldinaphtho[2,1-b:1′,2′-d]furan]
- solubility [2, 3]: 43 mg/mL (≈ 102 mM)
- solubility [2, 4]: 23 mg/mL (≈ 54.7 mM)
- Solubility in chloroform ([2]; chloroform): 2.8 wt. %
- Solubility in toluene ([2]; toluene): 2.6 wt. %

SMILES: CCCCCCc1ccc2cc3c(cc2c1)sc1cc2cc(CCCCCC)ccc2cc13 [Example 7, 3,9-dihexyldinaphtho[2,3-b:2′,3′-d]thiophene]
- melting point: 202 to 202.4 °C

SMILES: CCCCCCc1ccc2cc3c(cc2c1)oc1cc2cc(CCCCCC)ccc2cc13 [Example 5, 3,9-dihexyldinaphtho[2,3-b:2′,3′-d]furan]
- melting point: 198.7 to 199.1 °C
